A value given as a limit tells only on which side of the number the result lay.

The values that follow come from US20260146038A1, “NOVEL SALT OF DIMETHYL-2,3-DIHYDRO-1H-INDENE DERIVATIVE AND PROCESSES FOR PREPARING THE SAME” (YUHAN CORPORATION, priority 2022, published 2026).

What all share (type): physicochemical
A short description of series [1]: Stability test (accelerated condition). The note with it: for Water contents: Karl Fischer; for Water contents / HPLC purity: accelerated condition (40±2° C., 75±5% RH). The source says:
The results obtained by measuring purities (the HPLC purities) and water contents (by Karl Fischer method) are shown in Table 1 below.

Series [2] in a line: Hygroscopicity evaluation by Dynamic Vapor Sorption (DVS).
The nature of series [3]: Water-solubility evaluation. The note with it: 20° C.
Series [4] can be described thus: Photostability test according to ICH guideline Q1B. The note with it: for Water contents: Karl Fischer. As for the experimental part:
Photostability tests were carried out according to ICH guideline Q1B. […] The results obtained by measuring purities (the HPLC purities) and water contents (by Karl Fischer method) are shown in Table 2 below.

With `CC(C)Oc1ccc(-c2ccc3c(c2)CC(C)(C)C3NC(=O)O[C@@H]2CN3CCC2CC3)cc1Cl` (stereo partly drawn) [Compound of WO 2021/096238, (S)-quinuclidin-3-yl (5-(3-chloro-4-isopropoxyphenyl)-2,2-dimethyl-2,3-dihydro-1H-inden-1-yl)carbamate, reference compound], the “stability (form changes) in the accelerated condition” value in series [1] (amorphous free base) is reported as “low stability”. The “hygroscopicity (in words)” value in series [2] (amorphous free base) was “high hygroscopicity”. In addition, the solubility (in general, how much of the substance goes into solution per volume) in series [3] was under 10 µg/mL.
Regarding “((1S,4R)-7,7-dimethyl-2-oxobicyclo[2.2.1]heptan-1-yl)methanesulfonic acid salt of (S)-quinuclidin-3-yl ((R)-5-(3-chloro-4-isopropoxyphenyl)-2,2-dimethyl-2,3-dihydro-1H-inden-1-yl)carbamate [Example 1]”, in series [1] (40±2° C., 75±5% RH, up to 3 months), the “difference in the water contents under the accelerated condition” value is reported as at most 1.0%. The “stability by XRD and appearance under the accelerated condition” value in series [1] (40±2° C., 75±5% RH, FIGS. 5 and 6) is “excellent stability”. For the same compound, the Water contents in series [1] (1 month) was 0.32%; in series [1] (3 months), 1.28%; in series [1] (Initial), 0.48%; in series [4] (Initial) it was 0.48%; in series [4] (Light exposure (UV light for 10 hours / visible light for 40 hours)), 0.31%. Moreover, the HPLC purity in series [1] (1 month), in series [1] (3 months), in series [1] (Initial), in series [4] (Initial) and in series [4] (Light exposure (UV light 20 W/m^2 for 10 hours / visible light 30,000 lux for 40 hours)) was 98.6% in each case. This compound registered a Moisture adsorption in series [2] (weight change, room temperature (about 25° C.), RH 80%, 24 hours) of 2.3%.
